From publication PMC5477036, “Design and synthesis of biphenyl and biphenyl ether inhibitors of sulfatases” (Chemical Science, 2016)

Experiments:
Assay type in all cases: biochemical
[1] = molecular target: T1, aryl sulfatase A (ARSA) (Homo sapiens, UniProt P15289); experiment: ARSA inhibition assay with 4-MUS substrate; conditions: for inhibition at 1000 µM: 1 mM compound, 4-MUS substrate, means of two or more determinations, read-out: ARSA% inh @ 1 mM; for IC50: non-linear regression, 7 inhibitor concentrations in duplicate, mean ± SEM
T1 construct: purchased R & D Systems
T1 sequence (P15289 19-507): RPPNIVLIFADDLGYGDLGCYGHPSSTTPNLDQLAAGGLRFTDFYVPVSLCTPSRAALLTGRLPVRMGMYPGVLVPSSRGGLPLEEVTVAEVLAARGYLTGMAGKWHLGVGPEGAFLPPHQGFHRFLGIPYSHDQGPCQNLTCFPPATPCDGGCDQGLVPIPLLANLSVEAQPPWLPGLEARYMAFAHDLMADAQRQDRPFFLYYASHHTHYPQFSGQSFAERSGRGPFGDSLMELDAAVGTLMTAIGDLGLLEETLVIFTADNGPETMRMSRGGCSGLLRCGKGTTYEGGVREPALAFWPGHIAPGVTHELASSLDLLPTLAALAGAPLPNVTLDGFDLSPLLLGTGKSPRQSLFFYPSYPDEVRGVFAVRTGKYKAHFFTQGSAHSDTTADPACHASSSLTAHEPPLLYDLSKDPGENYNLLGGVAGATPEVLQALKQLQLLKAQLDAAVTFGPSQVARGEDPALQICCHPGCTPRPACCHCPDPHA
Method: (§1) Compounds were assayed for their ability to inhibit the Sulf-2-catalysed desulfation of 4-methylumbelliferyl sulfate (4-MUS) to the fluorescent 4-methylumbelliferone (MU). To determine their sulfatase selectivity, inhibition of aryl sulfatases A (ARSA) and B (ARSB) was also assessed. To date no suitable benchmark inhibitors of these sulfatase have been reported. […] In the majority of cases the presence of a substituent on the B-ring was detrimental to Sulf-2 inhibition when compared with unsubstituted biphenyl sulfamate 76. Aminosulfates 54 and 62 and carboxylic acid 15 retained potency. […] Compounds 8, 10, 15, 50 and 51 were also relatively potent ARSA inhibitors. […] Aminosulfates 56 and 63 were the best Sulf-2 inhibitors lacking a trichloroethylsulfamate group.
(§2) 1 – Biological assay protocols […]
(§3) Omega data analysis software.
(§4) ARSA and ARSB assay protocols
(§5) Compounds were screened in a 96-well black plate (Sterilin) using 4-MUS as a substrate, using 50 μL reaction mixture containing 40 ng of the commercially available enzymes (ARSA or ARSB from R & D Systems), 50 mM HEPES (pH = 4.5), 10 mM CaCl2, 1 mM test compound (dissolved in DMSO; final concentration of DMSO in reaction = 2%), and H2O (45 μL). The assay mixture was incubated for 1 h at 37 °C, followed by addition of 5 μL of 4-MUS (Km = 1.6 mM for ARSA and 612 μM for ARSB), and incubation for a further 1 h at 37 °C. The reaction was stopped with 100 μL of 1 M Tris (pH = 10.5) and read at 460 nm following excitation at 355 nm in FLUOstar Omega plate reader (BMG Labtech) using Omega data analysis software.

[2] = molecular target: T2, Sulf-2 (Homo sapiens, UniProt Q8IWU5); experiment: Inhibition of Sulf-2-catalysed desulfation of 4-MUS to fluorescent MU; conditions: for inhibition at 1000 µM: 1 mM compound, 4-MUS substrate, means of two or more determinations, read-out: Sulf-2% inh @ 1 mM; for IC50: non-linear regression, 7 inhibitor concentrations in duplicate, mean ± SEM
T2 construct: host or cells: 293T cells, transiently transfected
T2 sequence (Q8IWU5 25-870): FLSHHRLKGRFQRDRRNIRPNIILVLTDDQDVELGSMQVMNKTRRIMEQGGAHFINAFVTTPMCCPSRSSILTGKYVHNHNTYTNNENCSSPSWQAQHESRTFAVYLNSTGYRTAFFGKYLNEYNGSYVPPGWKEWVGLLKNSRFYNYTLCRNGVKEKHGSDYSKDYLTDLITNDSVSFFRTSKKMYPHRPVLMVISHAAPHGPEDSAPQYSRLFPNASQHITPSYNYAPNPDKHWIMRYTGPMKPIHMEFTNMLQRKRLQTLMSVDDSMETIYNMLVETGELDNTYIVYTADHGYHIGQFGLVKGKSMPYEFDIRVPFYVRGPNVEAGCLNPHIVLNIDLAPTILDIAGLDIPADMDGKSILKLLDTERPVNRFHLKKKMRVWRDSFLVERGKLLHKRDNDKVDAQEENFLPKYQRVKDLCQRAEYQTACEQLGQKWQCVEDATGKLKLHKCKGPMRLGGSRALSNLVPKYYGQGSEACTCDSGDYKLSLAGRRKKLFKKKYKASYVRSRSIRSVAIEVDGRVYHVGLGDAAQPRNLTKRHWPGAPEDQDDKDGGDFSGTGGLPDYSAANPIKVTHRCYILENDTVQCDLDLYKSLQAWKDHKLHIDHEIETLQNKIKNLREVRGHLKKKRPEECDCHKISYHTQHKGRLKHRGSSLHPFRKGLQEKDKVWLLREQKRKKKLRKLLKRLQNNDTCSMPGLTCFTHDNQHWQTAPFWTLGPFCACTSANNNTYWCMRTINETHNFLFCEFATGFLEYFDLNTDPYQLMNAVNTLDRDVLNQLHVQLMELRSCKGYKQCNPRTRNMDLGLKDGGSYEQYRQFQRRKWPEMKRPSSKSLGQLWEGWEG
Method: as §1
1 – Biological assay protocols
Compounds were screened using 4-MUS as a substrate for Sulf-2 according to a protocol described by Morimoto-Tomita et al.1 Briefly 293T cells were transiently transfected with pcDNA3.1/Myc-His(-)-HSulf-2 DNA (Addgene) and TransIT-LT1 Transfection Reagent (Mirus) using a transfection mixture at the ratio 1:3 (µg DNA:
µL transfection reagent) in Opti-MEM I reduced serum medium (Gibco). Conditioned medium containing Sulf-2 was collected after 3 days and bound to HIS-Select Nickel affinity gel (Sigma) overnight at 4 °C. Beads were washed three times with washing buffer containing 50 mM HEPES (pH 7.5), 300 mM NaCl, 0.05% Tween 20, followed by washing once with washing buffer containing no tween. Beads were suspended in 50 mM Hepes (pH 7.5) and used in inhibition assays. 20 μL of bead slurry was incubated with 1 mM compound (in DMSO) plus 10X reaction buffer (500 mM HEPES pH 7.5, 100 mM CaCl2) for 1 h at 37 °C. The reaction was started by the addition of 20 μL of 20 mM 4-MUS (final concentration of 8 mM) and incubated at 37 °C for 1 h. The reaction was stopped with 100 μL 1 M Tris buffer (pH 10.4) and read at 460 nm following excitation at 355 nm in FLUOstar Omega plate reader (BMG Labtech) using Omega data analysis software. […]

[3] = molecular target: T3, aryl sulfatase B (ARSB) (Homo sapiens, UniProt P15848); experiment: ARSB inhibition assay with 4-MUS substrate; conditions: for inhibition at 1000 µM: 1 mM compound, 4-MUS substrate, means of two or more determinations, read-out: ARSB% inh @ 1 mM; for IC50: non-linear regression, 7 inhibitor concentrations in duplicate, mean ± SEM
T3 construct: purchased R & D Systems
T3 sequence (P15848 37-533, species assumed): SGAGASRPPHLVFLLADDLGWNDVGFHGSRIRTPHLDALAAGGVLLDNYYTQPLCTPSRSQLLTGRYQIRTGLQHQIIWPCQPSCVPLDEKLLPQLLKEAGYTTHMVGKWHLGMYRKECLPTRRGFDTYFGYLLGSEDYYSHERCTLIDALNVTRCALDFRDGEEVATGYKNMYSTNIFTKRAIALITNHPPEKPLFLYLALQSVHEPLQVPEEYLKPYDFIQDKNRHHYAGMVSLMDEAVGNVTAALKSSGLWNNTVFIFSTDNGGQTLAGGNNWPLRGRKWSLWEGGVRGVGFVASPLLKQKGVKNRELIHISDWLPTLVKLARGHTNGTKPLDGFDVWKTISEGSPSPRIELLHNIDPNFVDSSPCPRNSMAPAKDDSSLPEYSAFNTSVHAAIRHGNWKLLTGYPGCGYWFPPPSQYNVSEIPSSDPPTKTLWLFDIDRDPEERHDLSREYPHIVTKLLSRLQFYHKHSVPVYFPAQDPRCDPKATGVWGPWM
Method: as §1, §2, §3, §4, §5

Structure (SMILES): COC(=O)c1ccccc1-c1cccc(OS(N)(=O)=O)c1 [Compound 8]
- inhibition at 1000 µM [1]: 86%
- inhibition at 1000 µM [2]: 20%
- inhibition at 1000 µM [3]: 0%

Structure (SMILES): NS(=O)(=O)Oc1cccc(-c2cccc(C(=O)O)c2)c1 [Compound 9]
- inhibition at 1000 µM [1]: 59%
- inhibition at 1000 µM [2]: 12%
- inhibition at 1000 µM [3]: 0%

Structure (SMILES): NS(=O)(=O)Oc1cccc(-c2ccc(C(=O)O)cc2)c1 [Compound 10]
- inhibition at 1000 µM [1]: 85%
- inhibition at 1000 µM [2]: 22%
- inhibition at 1000 µM [3]: 0%

Structure (SMILES): Nc1ccccc1-c1cccc(OS(N)(=O)=O)c1 [Compound 11]
- inhibition at 1000 µM [1]: 0%
- inhibition at 1000 µM [2]: 21%
- inhibition at 1000 µM [3]: 0%

Structure (SMILES): Nc1cccc(-c2cccc(OS(N)(=O)=O)c2)c1 [Compound 12]
- inhibition at 1000 µM [1]: 0%
- inhibition at 1000 µM [2]: 20%
- inhibition at 1000 µM [3]: 0%

Structure (SMILES): Nc1ccc(-c2cccc(OS(N)(=O)=O)c2)cc1 [Compound 13]
- inhibition at 1000 µM [1]: 61%
- inhibition at 1000 µM [2]: 6%
- inhibition at 1000 µM [3]: 0%

Structure (SMILES): NS(=O)(=O)Oc1cccc(-c2ccccc2C(=O)O)c1 [Compound 15]
- inhibition at 1000 µM [1]: 98%
- inhibition at 1000 µM [2]: 31%
- inhibition at 1000 µM [3]: 0%

Structure (SMILES): Nc1ccccc1Oc1cccc(OS(N)(=O)=O)c1 [Compound 25]
- inhibition at 1000 µM [1]: 75%
- inhibition at 1000 µM [2]: 28%
- inhibition at 1000 µM [3]: 17%

Structure (SMILES): Nc1cccc(Oc2cccc(OS(N)(=O)=O)c2)c1 [Compound 26]
- inhibition at 1000 µM [1]: 75%
- inhibition at 1000 µM [2]: 31%
- inhibition at 1000 µM [3]: 0%

Structure (SMILES): Nc1ccc(Oc2cccc(OS(N)(=O)=O)c2)cc1 [Compound 27]
- inhibition at 1000 µM [1]: 75%
- inhibition at 1000 µM [2]: 14%
- inhibition at 1000 µM [3]: 0%

Structure (SMILES): CC(=O)Nc1ccccc1-c1cccc(OS(N)(=O)=O)c1 [Compound 34]
- inhibition at 1000 µM [1]: 33%
- inhibition at 1000 µM [2]: 4%
- inhibition at 1000 µM [3]: 0%

Structure (SMILES): CC(=O)Nc1cccc(-c2cccc(OS(N)(=O)=O)c2)c1 [Compound 35]
- inhibition at 1000 µM [1]: 52%
- inhibition at 1000 µM [2]: 8%
- inhibition at 1000 µM [3]: 33%

Structure (SMILES): CC(=O)Nc1ccc(-c2cccc(OS(N)(=O)=O)c2)cc1 [Compound 36]
- inhibition at 1000 µM [1]: 0%
- inhibition at 1000 µM [2]: 3%
- inhibition at 1000 µM [3]: 0%

Structure (SMILES): CC(=O)Nc1ccccc1Oc1cccc(OS(N)(=O)=O)c1 [Compound 37]
- inhibition at 1000 µM [1]: 29%
- inhibition at 1000 µM [2]: 11%
- inhibition at 1000 µM [3]: 48%

Structure (SMILES): CC(=O)Nc1cccc(Oc2cccc(OS(N)(=O)=O)c2)c1 [Compound 38]
- inhibition at 1000 µM [1]: 57%
- inhibition at 1000 µM [2]: 10%
- inhibition at 1000 µM [3]: 0%

Structure (SMILES): CC(=O)Nc1ccc(Oc2cccc(OS(N)(=O)=O)c2)cc1 [Compound 39]
- inhibition at 1000 µM [1]: 45%
- inhibition at 1000 µM [2]: 14%
- inhibition at 1000 µM [3]: 0%

Structure (SMILES): NS(=O)(=O)Oc1cccc(-c2cccc(NS(=O)(=O)OCC(Cl)(Cl)Cl)c2)c1 [Compound 50]
- inhibition at 1000 µM [1]: 92%
- IC50 [1]: 55 ± 11 µM
- inhibition at 1000 µM [2]: 99%
- IC50 [2]: 167 ± 5 µM
- inhibition at 1000 µM [3]: 67%
- IC50 [3]: 130 ± 6 µM

Structure (SMILES): NS(=O)(=O)Oc1cccc(-c2ccc(NS(=O)(=O)OCC(Cl)(Cl)Cl)cc2)c1 [Compound 51]
- inhibition at 1000 µM [1]: 99%
- IC50 [1]: 91 ± 4 µM
- inhibition at 1000 µM [2]: 96%
- IC50 [2]: 566 ± 28 µM
- inhibition at 1000 µM [3]: 68%
- IC50 [3]: 101 ± 8 µM
